Measurements published in patent publication US11147785B2, “Modified free amino acid formulation and uses” (priority 2020, dated 2021).

What was measured:
[1] = Topical application without propylene glycol; assay type: in vivo
[2] = tested on: hepatic and intestinal glucuronidation; settings: concomitant administration; more in humans than rats; cited from earlier work

Compound	Efficacy in topical applications [1]	Increase of bioavailability (serum concentration and extent of intestinal absorption) [2]
N[C@@H](CCC(=O)O)C(=O)[O-].O.[Na+] [MSGLM, Monosodium L-Glutamate Monohydrate]	ineffective	
O=C(/C=C/C=C/c1ccc2c(c1)OCO2)N1CCCCC1 [Piperine]		up to 20 fold
